What was measured:
[1] = target: bovine pancreatic kallikrein; assay: Inhibition of bovine pancreatic kallikrein, Ki; assay type: biochemical; settings: Table 4A; Bovine Pancreatic Kallikrein (92.0 pM)
Procedure: After 5 min. at 37° C., 15 μl of 2 mM GPK-AMC was added and the change in fluorescence (as above) was monitored. […] After 5 min. incubation at 37° C., 25 μl of 20 mM GPK-AMC was added and the change in fluorescence monitored. […] After 5 min. at 37° C. 15 μl of 20 mM PFR-AMC was added and the change in fluorescence monitored.

[2] = target: T1, human neutrophil elastase (Homo sapiens, UniProt P08246); assay: Inhibition of human neutrophil elastase, Ki (Dixon plots); assay type: biochemical; settings: Table 4A; elastase
T1 sequence (P08246 30-267): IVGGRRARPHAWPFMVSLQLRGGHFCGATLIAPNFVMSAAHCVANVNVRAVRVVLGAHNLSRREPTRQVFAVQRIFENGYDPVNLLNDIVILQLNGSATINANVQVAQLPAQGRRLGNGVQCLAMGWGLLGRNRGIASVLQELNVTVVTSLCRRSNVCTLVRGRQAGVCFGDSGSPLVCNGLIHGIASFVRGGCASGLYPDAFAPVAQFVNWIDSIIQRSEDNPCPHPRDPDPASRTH
Procedure: […] Ki values were determined from Dixon plots of the form 1/V versus performed at two different substrate concentrations (Dixon et al., 1979).

[3] = Isoelectric point by isoelectric focusing; assay type: physicochemical
Procedure: After staining, the migration distance from the cathodic edge of the gel to the different protein bands was measured. The pI of each unknown was determined by using a standard curve generated by a plot of the migration distance of standards versus the corresponding pI's. […] (Tenstad et al., 1994, Acta Physiol. Scand. 152: 33-50).

CC[C@H](C)[C@H](N)C(=O)N[C@@H](Cc1c[nH]cn1)C(=O)N[C@@H](CC(=O)O)C(=O)N[C@@H](Cc1ccccc1)C(=O)N[C@H]1CSSC[C@@H](C(=O)N[C@@H](C)C(=O)N[C@H](C(=O)N[C@H](C(=O)O)C(C)C)[C@@H](C)O)NC(=O)[C@H](CCCCN)NC(=O)[C@H](CCCCN)NC(=O)[C@H](CC(C)C)NC(=O)[C@@H]2CSSC[C@@H]3NC(=O)[C@H](CO)NC(=O)CNC(=O)[C@H](CC(=O)O)NC(=O)[C@H]([C@@H](C)O)NC(=O)[C@H](C(C)C)NC(=O)[C@H](CC(N)=O)NC(=O)[C@H](Cc4ccc(O)cc4)NC(=O)[C@H](Cc4c[nH]c5ccccc45)NC(=O)[C@H](Cc4c[nH]c5ccccc45)NC(=O)[C@H](CCCNC(=N)N)NC(=O)[C@@H]4CCCN4C(=O)[C@H](CCSC)NC(=O)[C@H](CO)NC(=O)[C@H](C)NC(=O)[C@H](CCCNC(=N)N)NC(=O)[C@H](CSSC[C@H](NC(=O)CNC(=O)CNC(=O)[C@H](Cc4ccc(O)cc4)NC(=O)[C@H](C(C)C)NC(=O)[C@H](Cc4ccccc4)NC(=O)[C@H](CC(C)C)NC(=O)[C@H](CCC(N)=O)NC3=O)C(=O)N[C@@H](CC(=O)O)C(=O)NCC(=O)N[C@@H](CC(N)=O)C(=O)N[C@@H](CO)C(=O)N[C@@H](CC(N)=O)C(=O)N[C@@H](CC(N)=O)C(=O)N[C@@H](Cc3ccc(O)cc3)C(=O)N[C@@H](CC(C)C)C(=O)N[C@@H]([C@@H](C)O)C(=O)N[C@@H](CCCCN)C(=O)N[C@@H](CCC(=O)O)C(=O)N[C@@H](CCC(=O)O)C(=O)N2)NC(=O)[C@H](CCCNC(=N)N)NC(=O)CNC(=O)[C@H](C(C)C)NC(=O)[C@H](C(C)C)NC(=O)[C@H](CCCCN)NC(=O)[C@H](CO)NC(=O)[C@H](C(C)C)NC(=O)[C@H](CC(C)C)NC1=O [bikunin (7-64)]
Ki [1]: 0.4 nM | Ki [2]: > 100 nM | pI ([3]; first preparation of bikunin (7-64) (possibly not completely deprotected), migrated to the cathodic edge of the gel (pH 9.5)): much higher than the predicted value | pI ([3]; refolded purified protein, Ampholine PAGplate (pH 3.5 to 9.5)): 8.85

— patent US20070086956A1, “Method for accelerating the rate of mucociliary clearance” (BAYER AKTIENGESELLSCHAFT, priority 1998, published 2007)
